According to patent US9302999B2, “Substituted triazoles as herbicides” (E. I. DU PONT DE NEMOURS AND COMPANY, priority 2012, dated 2016):

Columns and labels:
Format in all cases: in vivo
[1] = test system: barnyardgrass (Echinochloa crus-galli); assay: Test A pre-/postemergence: barnyardgrass
In short: (§1)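 Compounds, formulated with surfactant in non-phytotoxic solvent, were applied as a directed soil spray preemergence and as postemergence sprays to 2–10 cm, one- to two-leaf seedlings grown in loam soil blended with sand; visual injury, 0–100, assessed ~10 days post-treatment against untreated controls.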

[2] = test system: morningglory (Ipomoea coccinea); assay: Test C pre-/postemergence: morningglory
In short: (§2)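 Preemergence on seeds in loam/sand, postemergence on 2–18 cm (1–4-leaf) plants in peat-based medium; compounds in non-phytotoxic solvent with surfactant. After 13–15 days in greenhouse, visual rating versus controls, 0 (no effect) to 100 (complete control).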

[3] = test system: blackgrass (Alopecurus myosuroides); assay: Test C pre-/postemergence: blackgrass
In short: as §2

[4] = test system: corn (Zea mays); assay: Test C pre-/postemergence: corn
In short: as §2

[5] = test system: chickweed (common chickweed, Stellaria media); assay: Test C postemergence: chickweed
In short: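 Crop and weed plants were grown in peat-vermiculite medium and treated postemergence at the 1- to 4-leaf stage (2-18 cm tall). After 13-15 days in a greenhouse, each species was rated visually against untreated controls on a 0-100 scale (0 no effect, 100 complete control).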

[6] = test system: pigweed (Amaranthus retroflexus); assay: Test A pre-/postemergence: pigweed
In short: as §1

[7] = test system: ryegrass, Italian (Italian ryegrass, Lolium multiflorum); assay: Test C pre-/postemergence: ryegrass, Italian
In short: as §2

[8] = test system: velvetleaf (Abutilon theophrasti); assay: Test A pre-/postemergence: velvetleaf
In short: as §1

[9] = test system: morningglory (Ipomoea spp.); assay: Test A pre-/postemergence: morningglory; conditions: Postemergence, 0 to 100 scale, 0 is no effect, 100 is complete control
In short: as §1

[10] = test system: lambsquarters (Chenopodium album); assay: Test C pre-/postemergence: lambsquarters; conditions: Postemergence
In short: as §2

[11] = test system: nutsedge, yellow (yellow nutsedge, Cyperus esculentus); assay: Test C pre-/postemergence: nutsedge, yellow
In short: as §2

[12] = test system: wheat (Triticum aestivum); assay: Test A pre-/postemergence: wheat
In short: as §1

[13] = Postemergence, 125 g ai/ha, 0 to 100 scale, 0 is no effect, 100 is complete control
[14] = Postemergence, 500 g ai/ha, 0 to 100 scale, 0 is no effect, 100 is complete control
[15] = Preemergence, 125 g ai/ha, 0 to 100 scale where 0 is no effect and 100 is complete control
[16] = Preemergence, 500 g ai/ha, 0 to 100 scale (0 no effect, 100 complete control)
[17] = Postemergence, 31 g ai/ha, scale 0 to 100 (0 no effect, 100 complete control)
[18] = Postemergence, 62 g ai/ha, scale 0 to 100 (0 no effect, 100 complete control)
[19] = Postemergence, 125 g ai/ha, scale 0 to 100, 0 no effect, 100 complete control
[20] = Postemergence, 250 g ai/ha, scale 0 to 100
[21] = Preemergence, 62 g ai/ha, scale of 0 to 100, 0 is no effect, 100 is complete control
[22] = Preemergence, 125 g ai/ha, scale 0 to 100, 0 no effect, 100 complete control
[23] = Preemergence, 250 g ai/ha, scale 0 to 100, 0 no effect, 100 complete control
[24] = Preemergence, 31 g ai/ha, scale 0 (no effect) to 100 (complete control)
[25] = 31 g ai/ha, scale 0 to 100 (0 no effect, 100 complete control)
[26] = 62 g ai/ha, scale 0 to 100 (0 no effect, 100 complete control)
[27] = 125 g ai/ha, scale 0 to 100, 0 no effect, 100 complete control

SMILES: CCc1nn(-c2ccc(F)cc2)nc1Oc1ccnc(C(F)(F)F)c1 [Compound 166]
- Plant response rating, Barnyardgrass [1, 13]: 70
- Barnyardgrass plant response rating [1, 14]: 90
- Plant response rating, Barnyardgrass [1, 15]: 90
- Plant response rating, Barnyardgrass [1, 16]: 100
- Plant response rating, Morningglory [2, 17]: 30
- Plant response rating, Morningglory [2, 18]: 30
- Plant response rating, Morningglory [2, 19]: 35
- Plant response rating, Morningglory [2, 20]: 65
- Plant response rating, Morningglory [2, 21]: 10
- Plant response rating, Morningglory [2, 22]: 25
- Plant response rating, Morningglory [2, 23]: 45
- Plant response rating, Blackgrass [3, 17]: 10
- Plant response rating, Blackgrass [3, 18]: 20
- Plant response rating, Blackgrass [3, 19]: 40
- Plant response rating, Blackgrass [3, 20]: 60
- Plant response rating, Blackgrass [3, 24]: 15
- Plant response rating, Blackgrass [3, 21]: 90
- Plant response rating, Blackgrass [3, 22]: 90
- Plant response rating, Blackgrass [3, 23]: 95
- Plant response rating, Corn [4, 17]: 15
- Plant response rating, Corn [4, 18]: 15
- Plant response rating, Corn [4, 19]: 15
- Plant response rating, Corn [4, 20]: 15
- Plant response rating, Corn [4, 24]: 0
- Plant response rating, Corn [4, 22]: 5
- Plant response rating, Corn [4, 23]: 20
- Plant response rating, Chickweed [5, 25]: 55
- Plant response rating, Chickweed [5, 26]: 90
- Plant response rating, Chickweed [5, 27]: 90
- Plant response rating, Chickweed ([5]; 250 g ai/ha, scale 0 to 100): 90
- Plant response rating, Pigweed [6, 13]: 100
- Pigweed plant response rating [6, 14]: 100
- Plant response rating, Pigweed [6, 15]: 100
- Plant response rating, Pigweed [6, 16]: 100
- Plant response rating, Ryegrass, Italian [7, 17]: 5
- Plant response rating, Ryegrass, Italian [7, 18]: 5
- Plant response rating, Ryegrass, Italian [7, 19]: 20
- Plant response rating, Ryegrass, Italian [7, 20]: 25
- Plant response rating, Ryegrass, Italian [7, 24]: 5
- Plant response rating, Ryegrass, Italian [7, 21]: 40
- Plant response rating, Ryegrass, Italian [7, 22]: 50
- Plant response rating, Ryegrass, Italian [7, 23]: 100
- Plant response rating, Velvetleaf [8, 13]: 80
- Velvetleaf plant response rating [8, 14]: 100
- Plant response rating, Velvetleaf [8, 15]: 30
- Plant response rating, Velvetleaf [8, 16]: 70
- Plant response rating, Morningglory ([9]; 125 g ai/ha): 90
- Morningglory plant response rating ([9]; 500 g ai/ha): 100
- Plant response rating, Lambsquarters [10, 25]: 60
- Plant response rating, Lambsquarters [10, 26]: 95
- Plant response rating, Lambsquarters [10, 27]: 95
- Plant response rating, Lambsquarters ([10]; 250 g ai/ha, scale 0 to 100): 98
- Plant response rating, Nutsedge, Yellow [11, 17]: 0
- Plant response rating, Nutsedge, Yellow [11, 18]: 5
- Plant response rating, Nutsedge, Yellow [11, 19]: 5
- Plant response rating, Nutsedge, Yellow [11, 20]: 10
- Plant response rating, Nutsedge, Yellow [11, 24]: 0
- Plant response rating, Nutsedge, Yellow [11, 21]: 0
- Plant response rating, Nutsedge, Yellow [11, 22]: 5
- Plant response rating, Nutsedge, Yellow [11, 23]: 15
- Plant response rating, Wheat [12, 13]: 30
- Wheat plant response rating [12, 14]: 40
- Plant response rating, Wheat [12, 15]: 10
- Plant response rating, Wheat [12, 16]: 50
